In US20090170934A1, “MANUFACTURING PROCESS FOR NO-DONATING COMPOUNDS SUCH AS NO-DONATING DICLOFENAC” (NICOX SA, priority 2002, published 2009) one finds melting point data, which are given here for one compound.

For `O=C(Cc1ccccc1Nc1c(Cl)cccc1Cl)OCCOCCO[N+](=O)[O-]` [Compound IVa, 2-[2-(nitrooxy)ethoxy]ethyl {2-[(2,6-dichlorophenyl)amino]phenyl}acetate], the melting point – broadly, the temperature, or range, at which the solid turns liquid – stood at 73 °C.
